According to publication PMC8551263, “Optineurin modulates the maturation of dendritic cells to regulate autoimmunity through JAK2-STAT3 signaling” (Nature Communications, 2021):

Molecular target: T1, OPTN (Homo sapiens, UniProt Q96CV9)
T1 construct: protein for SPR
Test: surface plasmon resonance
Assay type: binding
Conditions: rapid on-rate and off-rate kinetics; sensorgrams in Supplementary Fig. 7a, b

T1 sequence (Q96CV9 whole entry): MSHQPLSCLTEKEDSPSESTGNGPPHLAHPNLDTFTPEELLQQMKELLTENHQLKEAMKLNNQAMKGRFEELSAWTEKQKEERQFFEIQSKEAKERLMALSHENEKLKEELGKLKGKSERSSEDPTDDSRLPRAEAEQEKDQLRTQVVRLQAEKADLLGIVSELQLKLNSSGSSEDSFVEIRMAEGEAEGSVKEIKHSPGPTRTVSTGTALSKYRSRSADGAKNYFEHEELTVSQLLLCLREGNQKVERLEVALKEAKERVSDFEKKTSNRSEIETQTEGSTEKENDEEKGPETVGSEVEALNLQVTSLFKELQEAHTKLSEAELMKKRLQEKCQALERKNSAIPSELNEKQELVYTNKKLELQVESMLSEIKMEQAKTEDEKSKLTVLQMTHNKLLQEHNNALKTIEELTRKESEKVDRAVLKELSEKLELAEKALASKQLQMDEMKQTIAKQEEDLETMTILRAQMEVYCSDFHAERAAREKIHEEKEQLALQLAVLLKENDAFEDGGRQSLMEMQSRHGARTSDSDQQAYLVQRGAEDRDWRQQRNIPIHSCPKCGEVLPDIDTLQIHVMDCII

C[C@H]1O[C@@H](O[C@H]2CC[C@@]3(C)[C@@H](CC[C@]4(C)[C@@H]3C=C[C@]35OC[C@@]6(CCC(C)(C)C[C@H]63)[C@H](O)C[C@]54C)[C@]2(C)CO)[C@H](O)[C@@H](O[C@@H]2O[C@H](CO)[C@@H](O)[C@H](O)[C@H]2O)[C@H]1O [Saikosaponin D]
KD: 5.115 × e^−5 M
